# Earlier results in US7825159B2, “Mixtures of aromatic esters for marking or tagging organic products, marker compositions comprising the same and manufacturing methods thereof” (United Color Manufacturing, Inc., priority 2006, dated 2010).
# What was measured:
# [1] = with less than 28 wt. % n-octylpyrolidinone co-solvent
# [2] = with less than 28 wt. % n-octylpyrolidinone co-solvent, even with vigorous stirring
structure (smiles),measurement,setting,value
CCCC(=O)Oc1ccc(C2(c3ccc(OC(=O)CCC)c(C)c3)OC(=O)c3ccccc32)cc1C [Cresolphthalein dibutyrate],Precipitation on standing overnight in the freezer,[1],precipitates
same,Dispersion into diesel fuel,[2],will not disperse
